The subject of test [1] is E. coli wild-type GFP strain growth, fluorescence, 24 h. The test is described as follows: growth inhibition of wild-type GFP E. coli, dose response, H69 mutant RFP, cherry-pick (AID 977621).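 Further: wild-type GFP and H69 mutant RFP strains grown together 50/50 in each well.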
Test [2] relates to E. coli H69 humanized mutant ribosome RFP strain growth, fluorescence, 24 h. The description is as above. The note with it: test 2.
Where [3] appears, read: E. coli mixed culture, 24 h, measured here: total growth OD600, test 2.
Setting [4] is: measured here: total growth OD600, test 2.

Inconclusive results are not listed. Active and inactive are the calls of the source.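 How the source made its calls: active means Wild-type ribosome reporter drop at least double the humanized mutant ribosome reporter drop, growth loss under a set limit; inconclusive means no clear call, values can overlap the other calls; inactive means the rest.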

One may read the AC50 as the midpoint of the concentration-response curve, whichever way the signal moves.

Take `COC(=O)C[C@H]1C[C@@H]2c3cc(NC(=O)Nc4ccc(C(F)(F)F)cc4)ccc3O[C@@H]2[C@H](CO)O1`: the results for the AC50 in test [1], in test [1] (setting [3]) and in test [2] were > 100 µM (inactive), more than 100 µM and more than 100 µM, respectively.

For `C=CCn1c(SCC(=O)Nc2ccc3c(c2)OCCO3)nnc1-c1ccco1`, the AC50 in test [1] is > 100 µM (inactive); in test [2], less than 0.6 µM.

Take `CN1c2ccccc2-c2nc3ccccc3n2C1c1ccncc1` (configuration not stated): the AC50 was > 100 µM (inactive) in test [1], more than 100 µM in test [1] (setting [3]) and more than 100 µM in test [2].

As to `Cc1cc(NC(=O)CS(=O)(=O)c2cn(Cc3cccc(Br)c3)c3ccccc23)no1`, the AC50 in test [1] (setting [3]) was 46 µM; in test [2] it was more than 100 µM.

As for `Cc1nnn(C23CC4CC(CC(CC(=O)Nc5ccc(C)c(C)c5)(C4)C2)C3)n1`, the AC50 in test [1] is > 100 µM (inactive); in test [2], more than 100 µM.

Consider `COc1ccc(C)cc1NC(=O)c1nn(C)cc1Br`, for which the AC50 was > 100 µM (inactive) in test [1], 33.9 µM in test [1] (setting [3]) and more than 100 µM in test [2].

As to `COc1ccccc1NC(=O)CSc1nccn1Cc1ccc(F)cc1`, the AC50 was more than 100 µM in test [1] (setting [3]) and 30.8 µM in test [2].

In the case of `O=C(NCc1ccccc1)c1ccc(-c2ccccc2F)o1`, the AC50 was 36.1 µM in test [1] (setting [3]) and more than 100 µM in test [2].

For the molecule `O=S(=O)(c1ccccc1)N1C[C@@H]2[C@H](c3ccccc31)[C@H](CO)N2Cc1ccccc1`, the AC50 is > 100 µM (inactive) in test [1] and more than 100 µM in test [2].

In the case of `O=S(=O)(NC1CC1)c1ccc(S(=O)(=O)N2CCc3ccccc32)cc1`, the AC50 in test [1] (setting [3]) was more than 100 µM; in test [2], 8.03 µM.

As to `Cc1cccc(C)c1NC(=O)C1(C)CSCC(=O)N1CCOc1ccccc1` (configuration not stated), the half-maximal activity concentration (AC50) in test [1] (setting [3]) and in test [2] was more than 100 µM throughout.

`CC(C)C[C@H]1COc2cc(Br)ccc2S(=O)(=O)N1`: the half-maximal activity concentration (AC50) is more than 100 µM in test [1] (setting [3]) and 5.91 µM in test [2].

For the molecule `O=C(Cc1c(Cl)cccc1Cl)Nc1cccc(S(=O)(=O)N2CCOCC2)c1`, the figures for the AC50 in test [1], in test [1] (setting [3]) and in test [2] were > 100 µM (inactive), 47.3 µM and more than 100 µM, respectively.

Regarding `CCSc1nc2ccccc2c(=O)n1CCc1ccc(OC)c(OC)c1`, the values for the AC50 in test [1], in test [1] (setting [3]) and in test [2] were > 100 µM (inactive), 44.4 µM and 47.2 µM, respectively.

On to `CCOc1ccc(CCNC(=O)CN2C(=O)CCSc3ccccc32)cc1`, for which the AC50 in test [1] was > 100 µM (inactive); in test [2], more than 100 µM.

For the molecule `O=C(Cn1c(C(=O)NCc2ccco2)cc2sccc21)c1ccccc1`, the half-maximal activity concentration (AC50) in test [1] (setting [3]) was 50 µM; in test [2], 47.2 µM.

As to `O=C(CSc1nc2scc(-c3ccccc3)c2c(=O)[nH]1)N1CCCCC1`, the AC50 was > 100 µM (inactive) in test [1], 44.2 µM in test [1] (setting [3]) and more than 100 µM in test [2].

As for `NC(=O)c1sc2nnc(-c3ccccc3)c(-c3ccccc3)c2c1N`, the values for the AC50 in test [1] and in test [2] were > 100 µM (inactive) and more than 100 µM, respectively.

For `CN(CCOc1ccc(CC2SC(=O)NC2=O)cc1)c1ccccn1` (configuration not stated), the figures for the AC50 in test [1], in test [1] (setting [3]) and in test [2] were > 100 µM (inactive), 40.7 µM and more than 100 µM, respectively.

Regarding `CC1CCCN(c2nc(N(C)c3ccccc3)nc(N)c2[N+](=O)[O-])C1` (configuration not stated), the AC50 in test [1] was > 100 µM (inactive); in test [2], 50.7 µM.

In the case of `COc1ccccc1-n1c(Cc2ccccc2)nc2ccccc2c1=O`, the AC50 is > 100 µM (inactive) in test [1], 33 µM in test [1] (setting [4]) and 47.8 µM in test [2].

As to `C=C(C)Cn1c(=O)c2c(nc3n2CCCN3Cc2ccccc2)n(C)c1=O`, the AC50 was > 100 µM (inactive) in test [1] and more than 100 µM in test [2].

As for `COc1ccccc1CNC(=O)CN1C(=O)NC(c2ccccc2)(c2ccccc2)C1=O`, the AC50 in test [1] (setting [3]) is more than 100 µM; in test [2], 50.3 µM.

Consider `CCn1cc(Br)c(C(=O)Nc2ccc(C(=O)OC(C)C)cc2)n1`, for which the figures for the AC50 in test [1] and in test [2] were > 100 µM (inactive) and 24.1 µM, respectively.

Regarding `Cc1noc(C)c1COc1cccc(C(=O)N2CCc3ccccc32)c1`, the AC50 in test [1] (setting [3]) and in test [2] was more than 100 µM in each case.

`CCc1ccn2cc(-c3ccc4c(c3)OCO4)nc2c1`: the half-maximal activity concentration (AC50) in test [1] (setting [3]) and in test [2] was more than 100 µM each time.

Regarding `C[C@]12CCC3C(CC[C@H]4C[C@@H](O)CC[C@]34C)[C@H]1CC[C@H]2O` (some centres not stated), the concentration at half-maximal activity (AC50) in test [1] (setting [4]) was 43.3 µM; in test [2], more than 100 µM.

Take `O=C(NC1=NCCS1)c1sc2ccccc2c1Cl`: the values for the AC50 in test [1], in test [1] (setting [3]) and in test [2] were > 100 µM (inactive), 43.6 µM and more than 100 µM, respectively.

Regarding `COc1ccc(-c2csc3ncn(-c4ccccc4OC)c(=O)c23)cc1OC`, the AC50 in test [1] is > 100 µM (inactive); in test [2], more than 100 µM.

Consider `Cc1ccc(S(=O)(=O)Nc2ccccc2CNc2ccccn2)cc1`, for which the AC50 in test [1] was > 100 µM (inactive); in test [1] (setting [3]), 48.9 µM; in test [2], 50.6 µM.

On to `Cc1ccc(NC(=O)CN(C)C(=O)Cc2coc3cc(C)c(C)cc23)cc1`, for which the figures for the AC50 in test [1], in test [1] (setting [3]) and in test [2] were > 100 µM (inactive), 42.4 µM and 44 µM, respectively.

On to `O=C(CSCc1c(Cl)cccc1Cl)Nc1cccnc1`, for which the values for the AC50 in test [1], in test [1] (setting [3]) and in test [2] were > 100 µM (inactive), more than 100 µM and 5.01 µM, respectively.

For `O=C(O)CCSc1nc2ccccc2n1-c1ccccc1`, the AC50 in test [1] is > 100 µM (inactive); in test [1] (setting [3]), 26.9 µM; in test [2], 7.77 µM.

Regarding `CCC1(C(=O)OC)CCc2c(cc(OC)c3ccccc23)C1=O` (configuration not stated), the AC50 in test [1] (setting [3]) is 42.2 µM; in test [2], more than 100 µM.

Turning to `Cc1ccc(N(CC(O)Cn2nc(C)cc2C)S(=O)(=O)c2ccc3ccccc3c2)cc1` (configuration not stated), the AC50 in test [1] is > 100 µM (inactive); in test [1] (setting [3]) it was 31.5 µM; in test [2], more than 100 µM.

As for `CC(Nc1ncnc2ccccc12)c1ccccc1` (configuration not stated), the AC50 is > 100 µM (inactive) in test [1] and more than 100 µM in test [2].

As to `CCOc1ccccc1N1CCN(C(=O)CCCc2nc3ccccc3s2)CC1`, the AC50 in test [1] is > 100 µM (inactive); in test [1] (setting [3]), 37.2 µM; in test [2], 43.7 µM.

With `O=S(=O)(NCC1CCCO1)c1ccc(-c2ccc(Cl)cc2)cc1` (configuration not stated), the values for the AC50 in test [1], in test [1] (setting [3]) and in test [2] were > 100 µM (inactive), 44.5 µM and more than 100 µM, respectively.

On to `COC(=O)c1ccsc1NC(=O)c1cccc(OC)c1`, for which the AC50 in test [1] (setting [3]) and in test [2] was more than 100 µM each time.

Take `Cn1c(=O)c2nc(-c3ccccc3)c(-c3ccccc3)nc2n(C)c1=O`: the AC50 in test [1] is > 100 µM (inactive); in test [1] (setting [3]), 47.9 µM; in test [2] it was 35.6 µM.

For the molecule `CCn1c2ccccc2c2cc(NC(=O)c3ccco3)ccc21`, the AC50 in test [1] was > 100 µM (inactive); in test [1] (setting [3]), 40 µM; in test [2] it was more than 100 µM.

Regarding `O=S1(=O)N[C@H](Cc2ccccc2)COc2cccc(N3CCC[C@H]3CO)c21`, the AC50 in test [1] (setting [3]) and in test [2] was more than 100 µM in each case.

As to `CCOC(=O)c1ccoc1CN1CCN(S(=O)(=O)c2ccc(C)c(C)c2)CC1`, the AC50 in test [1] was > 100 µM (inactive); in test [2], more than 100 µM.

As for `C=C1c2cc3c(cc2NC(=S)N1Cc1ccccc1)OCO3`, the AC50 was less than 0.6 µM in test [1] (setting [3]) and more than 100 µM in test [2].

With `CN(C)S(=O)(=O)c1cccc(C(=O)Nc2ccc(C(=O)Nc3cccc(S(N)(=O)=O)c3)cc2)c1`, the AC50 was > 100 µM (inactive) in test [1] and more than 100 µM in test [2].

As for `CN(c1ccccc1)c1ccc([N+](=O)[O-])c2nonc12`, the AC50 in test [1] was > 100 µM (inactive); in test [2], 49.4 µM.

`COc1ccc(-c2ccccc2)cc1NC(=O)c1ccncc1`: the AC50 is more than 100 µM in test [1] (setting [3]) and 4.41 µM in test [2].

Consider `CCN(CC)CCn1c(SCC(=O)Nc2cccc(OC)c2)nc2c(sc3ccccc32)c1=O`, for which the results for the AC50 in test [1] and in test [2] were > 100 µM (inactive) and more than 100 µM, respectively.

Consider `O=C(O)CCC(=O)NCc1c(Cl)cccc1Sc1ccc(Cl)cc1`, for which the AC50 in test [1] is > 100 µM (inactive); in test [2] it was more than 100 µM.

Take `CCOc1ccc2oc(C(=O)NC3CCN(Cc4ccccc4)CC3)c(C)c2c1`: the AC50 in test [1] (setting [3]) was more than 100 µM; in test [2], 1.3 µM.

As to `COc1ccccc1NS(=O)(=O)c1cc(C(=O)Nc2ccc(S(=O)(=O)Nc3onc(C)c3C)cc2)ccc1C`, the AC50 in test [1] is > 100 µM (inactive); in test [2] it was 4.45 µM.

Regarding `O=C(O)C1CCCCC1C(=O)Nc1ccc(OCc2ccccc2)cc1` (configuration not stated), the AC50 in test [1] was > 100 µM (inactive); in test [2], more than 100 µM.

For `O=C(NCc1ccccc1Cl)[C@H]1CCCN1C(=O)[C@H]1CCCN1C(=O)c1cccc2ccccc12`, the AC50 in test [1] was > 100 µM (inactive); in test [1] (setting [3]), 48 µM; in test [2], more than 100 µM.

On to `COC(=O)c1c(NC(=O)c2ccccc2C(=O)O)sc2c1CCC2`, for which the AC50 was > 100 µM (inactive) in test [1] and 45.4 µM in test [2].

These data come from PubChem BioAssay AID977621 (Broad Institute, 2014).
